This note sets out measurements from PubChem BioAssay AID248 (DTP/NCI, 2004).

Structures are written as SMILES. Where “and” joins values, the source holds several entries; their conditions need not be identical. Identical values can stand only once. Inconclusive results and toxic doses are left out.

The subject of this test is L1210 leukemia ip in BDF1 mice, survival T/C. The test can be described thus: NCI In Vivo Anticancer Drug Screen. Data for tumor model L1210 Leukemia (intraperitoneal) in B6D2F1 (BDF1) mice. Conditions: endpoint: mean survival time, higher = longer survival. The method in brief:
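In this screen, tumor-bearing mice given compound are compared to those given vehicle, and their survival values are reported as a treated-to-control quotient.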

[1] abbreviates: dose: 100.0 mg/kg/injection, schedule: Q01DX001 (ip), vehicle: saline.
The mark [2] stands for this setting: dose: 200.0 mg/kg/injection, schedule: Q01DX001 (ip), vehicle: saline.
Where [3] appears, read: dose: 400.0 mg/kg/injection, schedule: Q01DX001 (ip), vehicle: saline.
Where [4] appears, read: dose: 100.0 mg/kg/injection, schedule: Q01DX009 (ip), vehicle: Klucel (hydroxypropylcellulose) (HPC).
[5] abbreviates: dose: 200.0 mg/kg/injection, schedule: Q01DX009 (ip), vehicle: Klucel (hydroxypropylcellulose) (HPC).
The mark [6] stands for this setting: dose: 400.0 mg/kg/injection, schedule: Q01DX009 (ip), vehicle: Klucel (hydroxypropylcellulose) (HPC).

Consider `COC(=O)CC(CC(=O)OC)c1cccc([N+](=O)[O-])c1`, for which the T/C (dose: 25.6 mg/kg/injection, schedule: Q04DX002 (ip), vehicle: saline with Tween-80) is 101 % of control; the T/C (dose: 64.0 mg/kg/injection, schedule: Q04DX002 (ip), vehicle: saline with Tween-80) is 101 % of control; the T/C (dose: 100.0 mg/kg/injection, schedule: Q04DX003 (ip), vehicle: saline with Tween-80) was 106 % of control; the T/C (dose: 160.0 mg/kg/injection, schedule: Q04DX002 (ip), vehicle: saline with Tween-80) was 101 % of control; the T/C (dose: 200.0 mg/kg/injection, schedule: Q04DX003 (ip), vehicle: saline with Tween-80) was 101 % of control; the T/C (dose: 400.0 mg/kg/injection, schedule: Q04DX002 (ip), vehicle: saline with Tween-80) is 86 % of control. Moreover, where the note is “dose: 400.0 mg/kg/injection, schedule: Q04DX003 (ip), vehicle: saline with Tween-80”, the T/C was 101 % of control.

Turning to `CCC(O)C(C)CO` (centres undefined), the T/C under setting [1] was 103 % of control, the T/C under setting [2] was 121 % of control and the T/C under setting [3] is 97 % of control.

`COc1ccc(N=NN(C)C(C)=O)cc1`: the T/C is 102 % of control (dose: 50.0 mg/kg/injection, schedule: Q01DX009 (ip), vehicle: Klucel (hydroxypropylcellulose) (HPC)); 101 % of control (dose: 75.0 mg/kg/injection, schedule: Q01DX001 (ip), vehicle: Klucel (hydroxypropylcellulose) (HPC)); 103 % of control under setting [4]; 93 % of control (dose: 150.0 mg/kg/injection, schedule: Q01DX001 (ip), vehicle: Klucel (hydroxypropylcellulose) (HPC)); 100 % of control under setting [5]; 96 % of control (dose: 300.0 mg/kg/injection, schedule: Q01DX001 (ip), vehicle: Klucel (hydroxypropylcellulose) (HPC)).

`CCCCCCCCCCCCNC(=O)C[n+]1cccc(C(=O)N(C)C)c1`: the T/C reads like this: (dose: 5.0 mg/kg/injection, schedule: Q04DX003 (ip), vehicle: saline) 93 % of control; (dose: 10.0 mg/kg/injection, schedule: Q04DX003 (ip), vehicle: saline) 96 % of control; (dose: 20.0 mg/kg/injection, schedule: Q04DX003 (ip), vehicle: saline) 93 % of control.

Take `Cn1c2ccccc2c(=O)c2cc(N)ccc21`: the T/C is 95 % of control (dose: 100.0 mg/kg/injection, schedule: Q04DX003 (ip), vehicle: saline); 98 % of control (dose: 200.0 mg/kg/injection, schedule: Q04DX003 (ip), vehicle: saline); 104 % of control (dose: 400.0 mg/kg/injection, schedule: Q04DX003 (ip), vehicle: saline).

For `CCC1(c2ccccc2)C(=O)N(CBr)C(=O)N(CBr)C1=O`, the T/C is 90 % of control (dose: 100.0 mg/kg/injection, schedule: Q01DX009 (ip), vehicle: saline with Tween-80); 92 % of control (dose: 100.0 mg/kg/injection, schedule: Q04DX002 (ip), vehicle: saline with Tween-80); 100 % of control (dose: 200.0 mg/kg/injection, schedule: Q04DX002 (ip), vehicle: saline with Tween-80).

Turning to `N#Cc1ccc(-c2nc3ncnc(N)c3[nH]2)cc1`, the T/C is 97 % of control (dose: 100.0 mg/kg/injection, schedule: Q04DX002 (ip), vehicle: Klucel (hydroxypropylcellulose) (HPC)); 105 % of control (dose: 200.0 mg/kg/injection, schedule: Q04DX002 (ip), vehicle: Klucel (hydroxypropylcellulose) (HPC)); 101 % of control (dose: 400.0 mg/kg/injection, schedule: Q04DX002 (ip), vehicle: Klucel (hydroxypropylcellulose) (HPC)).

With `OCCN(CCO)c1cc(OCc2ccccc2)cc(OCc2ccccc2)c1`, the T/C (dose: 25.0 mg/kg/injection, schedule: Q01DX009 (ip), vehicle: water) is 94 % of control; the T/C (dose: 50.0 mg/kg/injection, schedule: Q01DX009 (ip), vehicle: water) was 97 % of control; the T/C (dose: 100.0 mg/kg/injection, schedule: Q01DX009 (ip), vehicle: water) is 101 % of control; the T/C (dose: 200.0 mg/kg/injection, schedule: Q01DX009 (ip), vehicle: water) is 86 % of control; the T/C (dose: 400.0 mg/kg/injection, schedule: Q01DX009 (ip), vehicle: water) is 95 % of control.

Regarding `CC(N)C(=O)Nc1ccc(C(=O)O)c(O)c1` (centres undefined), the T/C (dose: 100.0 mg/kg/injection, schedule: Q01DX009 (ip), vehicle: saline) is 109 % of control; the T/C (dose: 200.0 mg/kg/injection, schedule: Q01DX009 (ip), vehicle: saline) is 102 % of control; the T/C (dose: 400.0 mg/kg/injection, schedule: Q01DX009 (ip), vehicle: saline) was 106 % of control.

As for `O=NN(CCCl)C(=O)Nc1ccc(-c2ccc(NC(=O)N(CCCl)N=O)cc2)cc1`, the T/C by setting is: (dose: 8.0 mg/kg/injection, schedule: Q01DX001 (ip), vehicle: carboxymethylcellulose (CMC)) 116 % of control; (dose: 16.0 mg/kg/injection, schedule: Q01DX001 (ip), vehicle: carboxymethylcellulose (CMC)) 118 % of control; (dose: 250.0 mg/kg/injection, schedule: Q01DX001 (ip), vehicle: carboxymethylcellulose (CMC)) 161 % of control; (dose: 375.0 mg/kg/injection, schedule: Q01DX001 (ip), vehicle: carboxymethylcellulose (CMC)) 163 % of control; (dose: 500.0 mg/kg/injection, schedule: Q01DX001 (ip), vehicle: carboxymethylcellulose (CMC)) 190 % of control; (dose: 750.0 mg/kg/injection, schedule: Q01DX001 (ip), vehicle: carboxymethylcellulose (CMC)) 229 % of control. The T/C is 229 % of control (dose: 1000.0 mg/kg/injection, schedule: Q01DX001 (ip), vehicle: carboxymethylcellulose (CMC)); 232 % of control (dose: 1500.0 mg/kg/injection, schedule: Q01DX001 (ip), vehicle: carboxymethylcellulose (CMC)); 168 % of control (dose: 2000.0 mg/kg/injection, schedule: Q01DX001 (ip), vehicle: carboxymethylcellulose (CMC)); 223 % of control (dose: 2500.0 mg/kg/injection, schedule: Q01DX001 (ip), vehicle: carboxymethylcellulose (CMC)).

`O=C1c2ccccc2C(=O)C(Cl)C1Cl` (centres undefined): the T/C runs as follows: (dose: 1.56 mg/kg/injection, schedule: Q04DX003 (ip), vehicle: other) 97 % of control; (dose: 3.13 mg/kg/injection, schedule: Q04DX003 (ip), vehicle: other) 92 % of control; (dose: 6.25 mg/kg/injection, schedule: Q04DX003 (ip), vehicle: other) 96 % of control and 100 % of control.

Consider `O=C(SCCN1CCCC1)N1c2ccccc2Sc2ccc(Cl)cc21`, for which the T/C by setting is: (dose: 75.0 mg/kg/injection, schedule: Q01DX001 (ip), vehicle: carboxymethylcellulose (CMC)) 94 % of control; (dose: 150.0 mg/kg/injection, schedule: Q01DX001 (ip), vehicle: carboxymethylcellulose (CMC)) 94 % of control.

For the molecule `COC(=O)C1CC(=O)C(C(=O)OC)CC1=O` (centres undefined), the T/C is 89 % of control under setting [4], 92 % of control under setting [5] and 89 % of control under setting [6].

For `O=C(COc1ccc(Cl)cc1Cl)Nc1cc(C(F)(F)F)ccc1Cl`, the T/C (dose: 50.0 mg/kg/injection, schedule: Q01DX001 (ip), vehicle: other) was 96 % of control; the T/C (dose: 100.0 mg/kg/injection, schedule: Q01DX001 (ip), vehicle: other) is 107 % of control; the T/C (dose: 100.0 mg/kg/injection, schedule: Q04DX002 (ip), vehicle: gum acacia) was 118 % of control; the T/C (dose: 200.0 mg/kg/injection, schedule: Q01DX001 (ip), vehicle: other) was 89 % of control; the T/C (dose: 200.0 mg/kg/injection, schedule: Q04DX002 (ip), vehicle: gum acacia) is 91 % of control; the T/C (dose: 400.0 mg/kg/injection, schedule: Q01DX001 (ip), vehicle: other) was 94 % of control. Besides, the T/C (dose: 400.0 mg/kg/injection, schedule: Q04DX002 (ip), vehicle: gum acacia) was 103 % of control.

`CCCC(O)CC(C)O` (centres undefined): the T/C was 97 % of control under setting [1], 100 % of control under setting [2] and 95 % of control under setting [3].

Turning to `CC(C)N=NCCO`, the T/C by setting is: (dose: 100.0 mg/kg/injection, schedule: Q01DX001 (ip), vehicle: Klucel (hydroxypropylcellulose) (HPC)) 101 % of control; (dose: 200.0 mg/kg/injection, schedule: Q01DX001 (ip), vehicle: Klucel (hydroxypropylcellulose) (HPC)) 103 % of control; under setting [5], 92 % of control; (dose: 400.0 mg/kg/injection, schedule: Q01DX001 (ip), vehicle: Klucel (hydroxypropylcellulose) (HPC)) 99 % of control.

For the molecule `CN(C)C(=O)Nc1ccc(Cc2ccc(NC(=O)N(C)C)cc2)cc1`, the T/C was 96 % of control under setting [4], 92 % of control under setting [5] and 96 % of control under setting [6].

For `CCOC(=O)C(Cc1c[nH]c2cc(N(CCO)CCO)ccc12)(NC(C)=O)C(=O)OCC`, the T/C under setting [1] is 97 % of control, the T/C under setting [2] was 101 % of control and the T/C under setting [3] is 98 % of control.
